Laboratory results: PubChem BioAssay (NCI)
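All cell lines were grown in 96-well plates and treated with compound for 48 hours. The concentration for full growth arrest is given as TGI.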

Tests used:
Experiment in all cases: DTP human tumour cell line panel, 48 h
OVCAR-8 ovarian = test system: OVCAR-8 ovarian
NCI-H226 lung = test system: NCI-H226 lung
KM12 colon = test system: KM12 colon
SF-539 CNS = test system: SF-539 CNS
HOP-92 NSCLC = test system: HOP-92 NSCLC
OVCAR-5 ovarian = test system: OVCAR-5 ovarian
HL-60(TB) leukemia = test system: HL-60(TB) leukemia
UACC-62 melanoma = test system: UACC-62 melanoma
COLO 205 colon = test system: COLO 205 colon
HCC-2998 colon = test system: HCC-2998 colon
SK-MEL-5 melanoma = test system: SK-MEL-5 melanoma
A498 renal = test system: A498 renal
SNB-78 CNS = test system: SNB-78 CNS
DMS 273 small cell lung = test system: DMS 273 small cell lung
NCI-H522 lung = test system: NCI-H522 lung
K-562 leukemia = test system: K-562 leukemia
SF-268 CNS = test system: SF-268 CNS
HT29 colon = test system: HT29 colon
M19-MEL melanoma = test system: M19-MEL melanoma
NCI-H23 lung = test system: NCI-H23 lung
MALME-3M melanoma = test system: MALME-3M melanoma
SF-295 CNS = test system: SF-295 CNS
UACC-257 melanoma = test system: UACC-257 melanoma
HCT-116 colon = test system: HCT-116 colon
KM20L2 colon = test system: KM20L2 colon
HCT-15 colon = test system: HCT-15 colon
SW-620 colon = test system: SW-620 colon
HOP-18 NSCLC = test system: HOP-18 NSCLC
SK-OV-3 ovarian = test system: SK-OV-3 ovarian
SNB-75 CNS = test system: SNB-75 CNS
MOLT-4 leukemia = test system: MOLT-4 leukemia
UO-31 renal = test system: UO-31 renal
SNB-19 CNS = test system: SNB-19 CNS
NCI-H460 lung = test system: NCI-H460 lung
CCRF-CEM leukemia = test system: CCRF-CEM leukemia
IGROV1 ovarian = test system: IGROV1 ovarian
U251 CNS = test system: U251 CNS
786-0 renal = test system: 786-0 renal
SK-MEL-28 melanoma = test system: SK-MEL-28 melanoma
SN12C renal = test system: SN12C renal
HOP-62 NSCLC = test system: HOP-62 NSCLC
CAKI-1 renal = test system: CAKI-1 renal
OVCAR-3 ovarian = test system: OVCAR-3 ovarian
M14 melanoma = test system: M14 melanoma
EKVX NSCLC = test system: EKVX NSCLC
ACHN renal = test system: ACHN renal
OVCAR-4 ovarian = test system: OVCAR-4 ovarian
RPMI-8226 leukemia = test system: RPMI-8226 leukemia
DLD-1 colon = test system: DLD-1 colon
LXFL 529 NSCLC = test system: LXFL 529 NSCLC
TK-10 renal = test system: TK-10 renal
DMS 114 small cell lung = test system: DMS 114 small cell lung
SR leukemia = test system: SR leukemia
LOX IMVI melanoma = test system: LOX IMVI melanoma
A549 NSCLC = test system: A549 NSCLC
RXF 393 renal = test system: RXF 393 renal
XF 498 CNS = test system: XF 498 CNS

Compound: CCc1cccc(C)c1NC(=O)CCc1n[nH]c(=S)o1
- TGI (OVCAR-8 ovarian): > 100 µM
- TGI (NCI-H226 lung): > 100 µM
- TGI (KM12 colon): > 100 µM
- TGI (SF-539 CNS): > 100 µM
- TGI (HOP-92 NSCLC): > 100 µM
- TGI (OVCAR-5 ovarian): > 100 µM
- TGI (HL-60(TB) leukemia): > 100 µM
- TGI (UACC-62 melanoma): > 100 µM
- TGI (COLO 205 colon): > 100 µM
- TGI (HCC-2998 colon): > 100 µM
- TGI (SK-MEL-5 melanoma): > 100 µM
- TGI (A498 renal): > 100 µM
- TGI (SNB-78 CNS): > 100 µM
- TGI (DMS 273 small cell lung): > 100 µM
- TGI (NCI-H522 lung): > 100 µM
- TGI (K-562 leukemia): > 100 µM
- TGI (SF-268 CNS): > 100 µM
- TGI (HT29 colon): > 100 µM
- TGI (M19-MEL melanoma): > 100 µM
- TGI (NCI-H23 lung): > 100 µM
- TGI (MALME-3M melanoma): > 100 µM
- TGI (SF-295 CNS): > 100 µM
- TGI (UACC-257 melanoma): > 100 µM
- TGI (HCT-116 colon): 31.1 µM
- TGI (KM20L2 colon): > 100 µM
- TGI (HCT-15 colon): > 100 µM
- TGI (SW-620 colon): 28 µM
- TGI (HOP-18 NSCLC): > 100 µM
- TGI (SK-OV-3 ovarian): > 100 µM
- TGI (SNB-75 CNS): > 100 µM
- TGI (MOLT-4 leukemia): > 100 µM
- TGI (UO-31 renal): > 100 µM
- TGI (SNB-19 CNS): > 100 µM
- TGI (NCI-H460 lung): > 100 µM
- TGI (CCRF-CEM leukemia): > 100 µM
- TGI (IGROV1 ovarian): > 100 µM
- TGI (U251 CNS): > 100 µM
- TGI (786-0 renal): > 100 µM
- TGI (SK-MEL-28 melanoma): > 100 µM
- TGI (SN12C renal): > 100 µM
- TGI (HOP-62 NSCLC): > 100 µM
- TGI (CAKI-1 renal): > 100 µM
- TGI (OVCAR-3 ovarian): > 100 µM
- TGI (M14 melanoma): > 100 µM
- TGI (EKVX NSCLC): > 100 µM
- TGI (ACHN renal): > 100 µM
- TGI (OVCAR-4 ovarian): > 100 µM
- TGI (RPMI-8226 leukemia): 58.2 µM
- TGI (DLD-1 colon): > 100 µM
- TGI (LXFL 529 NSCLC): > 100 µM
- TGI (TK-10 renal): > 100 µM

Compound: CC1(C)S[C@H](c2ccccc2C(=O)O)N[C@@H]1CC(=O)O
- TGI (OVCAR-8 ovarian): > 100 µM
- TGI (NCI-H226 lung): > 100 µM
- TGI (KM12 colon): > 100 µM
- TGI (SF-539 CNS): > 100 µM
- TGI (HL-60(TB) leukemia): > 100 µM
- TGI (UACC-62 melanoma): > 100 µM
- TGI (COLO 205 colon): > 100 µM
- TGI (SK-MEL-5 melanoma): > 100 µM
- TGI (A498 renal): > 100 µM
- TGI (SNB-78 CNS): > 100 µM
- TGI (DMS 273 small cell lung): > 100 µM
- TGI (NCI-H522 lung): > 100 µM
- TGI (DMS 114 small cell lung): > 100 µM
- TGI (K-562 leukemia): > 100 µM
- TGI (SF-268 CNS): > 100 µM
- TGI (HT29 colon): > 100 µM
- TGI (M19-MEL melanoma): > 100 µM
- TGI (NCI-H23 lung): > 100 µM
- TGI (SR leukemia): > 100 µM
- TGI (SF-295 CNS): > 100 µM
- TGI (UACC-257 melanoma): > 100 µM
- TGI (HCT-116 colon): > 100 µM
- TGI (HCT-15 colon): > 100 µM
- TGI (SW-620 colon): > 100 µM
- TGI (HOP-18 NSCLC): > 100 µM
- TGI (SNB-75 CNS): > 100 µM
- TGI (MOLT-4 leukemia): > 100 µM
- TGI (LOX IMVI melanoma): > 100 µM
- TGI (SNB-19 CNS): > 100 µM
- TGI (A549 NSCLC): > 100 µM
- TGI (RXF 393 renal): > 100 µM
- TGI (NCI-H460 lung): > 100 µM
- TGI (CCRF-CEM leukemia): > 100 µM
- TGI (IGROV1 ovarian): > 100 µM
- TGI (U251 CNS): > 100 µM
- TGI (786-0 renal): > 100 µM
- TGI (SK-MEL-28 melanoma): > 100 µM
- TGI (SN12C renal): > 100 µM
- TGI (HOP-62 NSCLC): > 100 µM
- TGI (M14 melanoma): > 100 µM
- TGI (EKVX NSCLC): > 100 µM
- TGI (ACHN renal): > 100 µM
- TGI (OVCAR-4 ovarian): > 100 µM
- TGI (RPMI-8226 leukemia): > 100 µM
- TGI (DLD-1 colon): > 100 µM
- TGI (LXFL 529 NSCLC): > 100 µM

Compound: COc1nc2c(nc(N)n2C2OC(CO)C(O)C(O)C2O)c(=O)[nH]1 (stereo not drawn)
- TGI (OVCAR-8 ovarian): > 100 µM
- TGI (NCI-H226 lung): > 100 µM
- TGI (KM12 colon): > 100 µM
- TGI (SF-539 CNS): > 100 µM
- TGI (HOP-92 NSCLC): > 100 µM
- TGI (HL-60(TB) leukemia): > 100 µM
- TGI (UACC-62 melanoma): > 100 µM
- TGI (COLO 205 colon): > 100 µM
- TGI (HCC-2998 colon): > 100 µM
- TGI (SK-MEL-5 melanoma): > 100 µM
- TGI (A498 renal): > 100 µM
- TGI (SNB-78 CNS): > 100 µM
- TGI (NCI-H522 lung): > 100 µM
- TGI (K-562 leukemia): > 100 µM
- TGI (SF-268 CNS): > 100 µM
- TGI (HT29 colon): > 100 µM
- TGI (M19-MEL melanoma): > 100 µM
- TGI (NCI-H23 lung): > 100 µM
- TGI (MALME-3M melanoma): > 100 µM
- TGI (SR leukemia): > 100 µM
- TGI (SF-295 CNS): > 100 µM
- TGI (UACC-257 melanoma): > 100 µM
- TGI (HCT-116 colon): > 100 µM
- TGI (KM20L2 colon): > 100 µM
- TGI (XF 498 CNS): > 100 µM
- TGI (SW-620 colon): > 100 µM
- TGI (HOP-18 NSCLC): > 100 µM
- TGI (SK-OV-3 ovarian): > 100 µM
- TGI (SNB-75 CNS): > 100 µM
- TGI (LOX IMVI melanoma): > 100 µM
- TGI (UO-31 renal): > 100 µM
- TGI (SNB-19 CNS): > 100 µM
- TGI (A549 NSCLC): > 100 µM
- TGI (RXF 393 renal): > 100 µM
- TGI (NCI-H460 lung): > 100 µM
- TGI (CCRF-CEM leukemia): > 100 µM
- TGI (IGROV1 ovarian): > 100 µM
- TGI (U251 CNS): > 100 µM
- TGI (786-0 renal): > 100 µM
- TGI (SK-MEL-28 melanoma): > 100 µM
- TGI (SN12C renal): > 100 µM
- TGI (HOP-62 NSCLC): > 100 µM
- TGI (CAKI-1 renal): > 100 µM
- TGI (OVCAR-3 ovarian): > 100 µM
- TGI (M14 melanoma): > 100 µM
- TGI (EKVX NSCLC): > 100 µM
- TGI (ACHN renal): > 100 µM
- TGI (OVCAR-4 ovarian): > 100 µM
- TGI (DLD-1 colon): > 100 µM
- TGI (LXFL 529 NSCLC): > 100 µM
- TGI (TK-10 renal): > 100 µM
